Experimental data as given in patent US7270977B2, “Polypeptides for identifying fungicidally active compounds” (priority 2001, dated 2007).

Biological target: U. maydis IMPDH (Imp1) (Ustilago maydis, UniProt A0A0D1CRJ0, T408N)
Experiment: Inhibition of U. maydis IMPDH (NADH fluorescence assay)
Assay type: biochemical
Conditions: negative decimal logarithm of the molar IC50 for 50% inhibition of the enzyme; read-out: pI50 (converted)
Procedure: The activity, or the decrease or increase in activity, can also preferably be determined by means of the conversion of the substrate NAD^+ into NADH, where the lower, or inhibited, activity of the polypeptide according to the invention is determined with reference to a less sharp increase in fluorescence emitted by the smaller amounts of NADH formed (see also FIG. 1). NADH fluoresces more than NAD^+.
To this end, the polypeptide according to the invention is incubated at a suitable concentration, which is preferably between 0.1 and 20 ng/μl, preferably between 0.13 and 10 ng/μl, of the enzyme, with NAD^+ at a concentration of from 5 to 400 μM, preferably 10 to 100 μM, and IMP at a concentration of from 5 to 400 μM, preferably from 50 to 300 μM, at a suitable temperature. The IMP concentration is preferably in each case twice as high as the concentration of the substrate NAD^+. It must be borne in mind that substrate inhibition can be observed for both substrates, viz. NAD^+ and IMP, and the used concentrations of the two substrates should therefore be checked in this respect. The temperature may be in a range of from 8 to 37° C. The measurement is preferably carried out at from 10 to 30° C., room temperature is also suitable in particular. The reaction is carried out in a usual buffer (“assay buffer”) which can contain preferably for example 20 to 200 mM KCl, 1 to 5 mM DTE or DTT, 0.01 to 1% BSA, 0.01 to 0.1% Tween 20 and 2 to 10% glycerol and brought to a pH of 8, for example using 25 to 100 mM Tris buffer (see Example 2). […]
The formation of NADH in the course of the reaction is then monitored with reference to the fluorescence at an excitation wavelength of 360 nm and an emission wavelength of 465 nm. The increase in fluorescence in the presence of a chemical compound can then be compared with the increase in fluorescence in the absence of a chemical compound. […] The period within which the increase in fluorescence is measured can be varied. A slow increase in fluorescence can be observed over the course of several hours, until, after 5 to 10 hours, a plateau is reached (see also FIG. 3). As a rule, the fluorescence decreases thereafter. […]
The measurement can also be carried out in formats conventionally used for HTS or UHTS assays, for example in microtitre plates, into which for example a total volume of 5 to 50 μl is introduced per reaction or per well and the individual components are present in one of the above-stated final concentrations. […] The mixture is then incubated for example for up to 2 or 3 hours at a suitable temperature, and the increase in fluorescence is measured at an excitation wavelength of 360 nm and an emission wavelength of 460 nm. […]

| SMILES | IC50 |
| --- | --- |
| CCCCCCCCCCCCCCCCOc1ccc(CCCC(=O)O)cc1 [Example 1] | 25.1 µM |
| CN1CCN(C)c2cc3nc4ccccc4nc3cc21 [Example 3] | 10 µM |
| COC1=Cc2ccccc2C(=O)C1=O [Example 2] | 12.6 µM |
| c1coc(-c2oc3nc4c(-c5ccco5)c(-c5ccco5)oc4nc3c2-c2ccco2)c1 [Example 4] | 0.2 µM |
